Target: T1, Human 5HT6 Receptor (Homo sapiens, UniProt P50406)
T1 construct: expressed in transfected cells; host or cells: HEK293 cells
Assay: Binding Assay for Human 5HT6 Receptor
Settings: [3H]LSD 1.5 nM; human recombinant receptor expressed in HEK293 cells
Description: Binding Assay for Human 5HT6 Receptor
Receptor source: Human recombinant expressed in HEK293 cells
Radioligand: [^3H]LSD (60-80 Ci/mmol)
Final ligand concentration—[1.5 nM]
Non-specific determinant: Methiothepin mesylate—[0.1 μM]
Reference compound: Methiothepin mesylate
Positive control: Methiothepin mesylate
Reactions are carried out in 50 mM TRIS-HCl (pH 7.4) containing 10 mM MgCl2, 0.5 mM EDTA for 60 minutes at 37° C. The reaction is terminated by rapid vacuum filtration onto glass fiber filters. Radioactivity trapped onto the filters is determined and compared to control values in order to ascertain any interactions of test compound(s) with the cloned serotonin—5HT6 binding site.
• Monsma F. J. Jr., et al., Molecular Cloning and Expression of Novel Serotonin Receptor with High Affinity for Tricyclic Psychotropic Drugs. Mol. Pharmacol. (43): 320-327 (1993).

T1 sequence (P50406 whole entry): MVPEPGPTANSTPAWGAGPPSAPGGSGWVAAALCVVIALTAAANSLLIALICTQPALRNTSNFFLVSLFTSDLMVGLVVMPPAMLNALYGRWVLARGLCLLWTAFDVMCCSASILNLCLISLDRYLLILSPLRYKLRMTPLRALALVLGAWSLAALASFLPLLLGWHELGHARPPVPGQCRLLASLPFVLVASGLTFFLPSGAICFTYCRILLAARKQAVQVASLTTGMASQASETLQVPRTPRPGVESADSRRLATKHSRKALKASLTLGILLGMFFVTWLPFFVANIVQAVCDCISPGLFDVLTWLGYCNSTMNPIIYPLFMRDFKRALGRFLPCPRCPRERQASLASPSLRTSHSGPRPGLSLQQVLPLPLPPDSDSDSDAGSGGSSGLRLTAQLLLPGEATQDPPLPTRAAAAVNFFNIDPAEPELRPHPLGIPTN

| Compound | IC50 [µM] | Ki [µM] |
| --- | --- | --- |
| COc1ccc2c(c1)c(C1CCN(C)C1)c1n2S(=O)(=O)c2ccccc2-1 (stereo not shown) [drawing 19] | 0.205 | 0.0881 |
| COc1ccc2c(c1)c(C1CCN(C)C1)c1n2S(=O)(=O)c2ccccc2-1 (stereo not shown) [drawing 20] | 0.383 | 0.172 |

From US7388024B2, “Indeno[2,1A]indenes and isoindolo[2,1-A]indoles” (Suven Life Sciences Limited, priority 2004, dated 2008)
